ChEMBL document CHEMBL1821670, “Synthesis and in vitro biological evaluation of carbonyl group-containing analogues for σ1 receptors” (J Med Chem, 2011)

Legend:
[1] = Displacement of [3H]-DTG from sigma 2 receptor in rat liver membrane homogenates after 2 hrs by liquid scintillation counting; format: cell membranes
[2] = molecular target: T1, Vesicular acetylcholine transporter (Homo sapiens, UniProt Q16572); assay: Displacement of (-)-[3H]vesamicol from human VAChT expressed in rat PC12 A123.7 cells after 20 hrs; format: cell-based, PC-12
T1 sequence (Q16572 whole entry): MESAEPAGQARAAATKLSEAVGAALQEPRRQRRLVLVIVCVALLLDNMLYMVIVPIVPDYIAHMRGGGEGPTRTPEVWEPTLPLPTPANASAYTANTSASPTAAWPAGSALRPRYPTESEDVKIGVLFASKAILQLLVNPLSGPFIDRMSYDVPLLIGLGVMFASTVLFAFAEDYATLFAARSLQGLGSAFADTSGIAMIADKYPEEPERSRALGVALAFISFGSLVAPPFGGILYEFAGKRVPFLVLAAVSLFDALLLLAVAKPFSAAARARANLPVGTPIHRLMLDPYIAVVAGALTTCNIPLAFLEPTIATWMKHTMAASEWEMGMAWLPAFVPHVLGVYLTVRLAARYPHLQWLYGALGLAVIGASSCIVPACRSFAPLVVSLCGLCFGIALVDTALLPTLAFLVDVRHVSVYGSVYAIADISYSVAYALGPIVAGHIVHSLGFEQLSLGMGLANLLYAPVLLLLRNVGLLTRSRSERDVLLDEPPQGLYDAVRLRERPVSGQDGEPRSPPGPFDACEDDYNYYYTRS

[3] = molecular target: Sigma non-opioid intracellular receptor 1 (Cavia porcellus, UniProt Q60492); assay: Displacement of (+)-[3H]pentazocine from sigma 1 receptor in guinea pig brain membrane homogenates after 90 mins by liquid scintillation counting; format: cell membranes
[4] = Selectivity ratio of Ki for sigma 1 receptor in guinea pig brain membrane homogenates to Ki for human VAChT; format: cell membranes
[5] = Selectivity ratio of Ki for sigma 1 receptor in guinea pig brain membrane homogenates to Ki for sigma 2 receptor in rat liver membrane homogenates; format: cell membranes

Chain of Sigma non-opioid intracellular receptor 1 (Q60492 whole entry): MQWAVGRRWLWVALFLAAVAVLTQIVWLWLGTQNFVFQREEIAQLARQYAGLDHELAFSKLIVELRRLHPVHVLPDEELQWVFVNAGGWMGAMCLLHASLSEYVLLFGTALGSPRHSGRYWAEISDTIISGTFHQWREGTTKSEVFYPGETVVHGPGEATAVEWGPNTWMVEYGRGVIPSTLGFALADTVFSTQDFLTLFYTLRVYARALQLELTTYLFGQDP

| Ki [1] [nM] | Ki [2] [nM] | Ratio Ki [4] | Ratio Ki [5] | SMILES | Ki [3] [nM] |
| --- | --- | --- | --- | --- | --- |
| 8640 | – | 1.1 | 2.7 | O=C(c1ccc(F)cc1)C1CCN([C@H]2CCN(C(=O)c3ccc(F)cc3)C[C@@H]2O)CC1 (relative stereo) | – |
| 13000 | – | 0.2 | 11 | O=C(c1ccc(F)cc1)C1CCN([C@H]2CN(Cc3cccnc3)CC[C@@H]2O)CC1 (relative stereo) | – |
| 8540 | – | 0.17 | 41 | COc1ccc(C(=O)C2CCN([C@H]3CN(Cc4ccccc4)CC[C@@H]3O)CC2)cc1 (relative stereo) | – |
| 17100 | – | – | – | COc1ccc(C(=O)C2CCN([C@H]3CN(Cc4cccnc4)CC[C@@H]3O)CC2)cc1 (relative stereo) | – |

Second part, the compound before the results:

| SMILES | Ki [1] [nM] | Ki [2] [nM] | Ratio Ki [4] | Ratio Ki [5] | Ki [3] [nM] |
| --- | --- | --- | --- | --- | --- |
| O[C@@H]1CCN(Cc2ccc(F)cc2)C[C@H]1N1CCC(c2ccccc2)CC1 | 35.9 | – | – | – | – |
| Cc1ccc(C2CCN([C@@H]3CCCC[C@H]3O)CC2)cc1 | 42.4 | 22.9 | – | – | 8.1 |
| COc1ccc(CCN2CCN(CCCc3ccccc3)CC2)cc1OC | 242 | – | – | – | – |
| O[C@@H]1CCN(Cc2cccc(I)c2)C[C@H]1N1CCC(c2ccccc2)CC1 | 190 | – | – | – | 92 |
| O[C@@H]1CCCC[C@H]1N1CCC(c2ccccc2)CC1 [VESAMICOL] | 346 | – | – | – | 73.8 |
